Experimental data: patent US11655258B2, “Heterocycle derivatives as pesticides” (BAYER AKTIENGESELLSCHAFT, priority 2017, dated 2023)
Like-named read-outs stand apart in the source and are kept apart here. Each block holds one compound with its values, some of them ahead of it.

Key:
Myzus persicae [1] = assay: Myzus persicae oral test; format: in vivo; conditions: 120 h, read-out: efficacy
Protocol: Myzus persicae Oral Test • Solvent: 100 parts by weight of acetone
To produce a suitable preparation of active compound, 1 part by weight of active compound is dissolved using the specified parts by weight of solvent and made up with water until the desired concentration is attained.
50 μl of the active compound preparation are transferred into microtitre plates and made up to a final volume of 200 μl with 150 μl of IPL41 insect medium (33%+15% sugar). Subsequently, the plates are sealed with parafilm, which a mixed population of green peach aphids (Myzus persicae) within a second microtitre plate is able to puncture and imbibe the solution through.
(§1) After 5 days, the efficacy in % is determined. 100% means that all the aphids have been killed; 0% means that no aphids have been killed.

Phaedon cochleariae = Phaedon cochleariae spray test; format: in vivo; conditions: 168 h, read-out: efficacy; for pest or weed control at 20 g/ha: application rate 20 g/ha
Protocol: Phaedon cochleariae—Spray Test • Solvent: 78.0 parts by weight of acetone • 1.5 parts by weight of dimethylformamide • Emulsifier: alkylaryl polyglycol ether
(§2) To produce a suitable active compound preparation, 1 part by weight of active compound is dissolved using the stated parts by weight of solvent and made up with water containing an emulsifier concentration of 1000 ppm until the desired concentration is attained. To produce further test concentrations, the formulation is diluted with emulsifier-containing water.
Discs of Chinese cabbage leaves (Brassica pekinensis) are sprayed with an active compound formulation of the desired concentration and, after drying, populated with larvae of the mustard beetle (Phaedon cochleariae).
After 7 days, the efficacy in % is determined. 100% means that all the beetle larvae have been killed; 0% means that no beetle larvae have been killed.

Myzus persicae [2] = assay: Myzus persicae spray test (Chinese cabbage leaf discs); format: in vivo; conditions: foliar, 120 h, read-out: efficacy
Protocol: Myzus persicae Spray Test • Solvent: 78 parts by weight of acetone • 1.5 parts by weight of dimethylformamide • Emulsifier: alkylaryl polyglycol ether
as §2
Discs of Chinese cabbage leaves (Brassica pekinensis) infested by all stages of the green peach aphid (Myzus persicae) are sprayed with an active compound formulation of the desired concentration.
as §1

Lucilia cuprina = Lucilia cuprina test; format: in vivo; conditions: application rate 100 ppm, L1 larvae, after 2 days
Protocol: Lucilia cuprina Test • Solvent: dimethyl sulfoxide
To produce a suitable active compound formulation, 10 mg of active compound are mixed with 0.5 ml of dimethyl sulfoxide, and the concentrate is diluted with water to the desired concentration.
About 20 L1 larvae of the Australian sheep blowfly (Lucilia cuprina) are transferred into a test vessel containing minced horsemeat and the active compound formulation of the desired concentration.
After 2 days, the kill in % is determined. 100% means that all the larvae have been killed; 0% means that no larvae have been killed.

Ctenocephalides felis = Ctenocephalides felis oral test; format: in vivo; conditions: application rate 100 ppm in citrated cattle blood, after 2 days
Protocol: Ctenocephalides felis—Oral Test • Solvent: dimethyl sulfoxide
To produce a suitable active compound formulation, 10 mg of active compound are mixed with 0.5 ml of dimethyl sulfoxide. Dilution with citrated cattle blood gives the desired concentration.
About 20 unfed adult cat fleas (Ctenocephalides felis) are placed into a chamber which is closed at the top and bottom with gauze. A metal cylinder whose bottom end is closed with parafilm is placed onto the chamber. The cylinder contains the blood/active compound formulation, which can be imbibed by the fleas through the parafilm membrane.
After 2 days, the kill in % is determined. 100% means that all of the fleas have been killed; 0% means that none of the fleas have been killed.

[3] = log P by HPLC on reversed-phase column (EEC Directive 79/831 Annex V.A8); format: physicochemical; conditions: reversed-phase HPLC column (C18); pH 7.8, 0.001 molar aqueous ammonium bicarbonate/acetonitrile, 55° C.; read-out: log P (neutral)
Protocol: The log P values are measured according to EEC Directive 79/831 Annex V.A8 by HPLC (high-performance liquid chromatography) on a reversed-phase column (C 18). Temperature: 55° C.
The LC-MS determination in the neutral range is effected at pH 7.8 with 0.001 molar aqueous ammonium bicarbonate solution and acetonitrile as mobile phases; linear gradient from 10% acetonitrile to 95% acetonitrile. Called log P (neutral) in the table.
Calibration is carried out using unbranched alkan-2-ones (having 3 to 16 carbon atoms) with known Log P values (Log P values determined on the basis of the retention times by linear interpolation between two successive alkanones).

Nilaparvata lugens = Nilaparvata lugens spray test (NILALU); format: in vivo; conditions: 96 h, 4 dat, read-out: % efficacy
Protocol: Nilaparvata lugens—Spray Test (NILALU) • Solvent: 52.5 parts by weight of acetone • 7 parts by weight of dimethylformamide • Emulsifier: alkylaryl polyglycol ether
as §2, with “water. If the addition of ammonium salts or/and penetrants is required, these are each added in a concentration of 1000 ppm to the formulation solution.” for “water.”
Rice plants (Oryza sativa) are sprayed with an active ingredient formulation of the desired concentration and then populated with larvae of the brown planthopper (Nilaparvata lugens).
After the desired period of time, the efficacy in % is determined. 100% means that all of the planthoppers have been killed; 0% means that none of the planthoppers have been killed.

Myzus persicae [4] = assay: Myzus persicae drench test (MYZUPE D), savoy cabbage; format: in vivo; conditions: soil, 240 h, 10 dat, read-out: % efficacy
Protocol: Myzus persicae—Drench Test (MYZUPE D) • Solvent: 7 parts by weight of dimethylformamide • Emulsifier: 2 parts by weight of alkylaryl polyglycol ether
To produce a suitable active compound preparation, 1 part by weight of active compound is mixed with the specified amounts of solvent and emulsifier, and the concentrate is diluted with water to the desired concentration, it being necessary to include the volume of soil which is drenched in the calculation. It should be ensured that a concentration of 40 ppm of emulsifier in the soil is not exceeded. To produce further test concentrations, water is used for dilution.
Savoy cabbage (Brassica oleracea) in pots with soil and infested by all stages of the green peach aphid (Myzus persicae) is watered with an active compound preparation of the desired concentration.
After the desired period of time, the efficacy in % is determined. 100% means that all the aphids have been killed; 0% means that no aphids have been killed.

Aphis gossypii = Aphis gossypii spray test (APHIGO); format: in vivo; conditions: 144 h, 6 dat, read-out: % efficacy
Protocol: Aphis gossypii Spray Test (APHIGO) • Solvent: 14 parts by weight of dimethylformamide • Emulsifier: alkylaryl polyglycol ether
as §2, with “water. If the addition of ammonium salts or/and penetrants is required, these are each added in a concentration of 1000 ppm to the formulation solution.” for “water.”
Cotton plants (Gossypium hirsutum) heavily infested by the cotton aphid (Aphis gossypii) are sprayed with an active compound formulation of the desired concentration.
After the desired time, the kill in % is determined. 100% means that all the aphids have been killed; 0% means that no aphids have been killed.

Myzus persicae [5] = assay: Myzus persicae spray test (MYZUPE S), bell pepper plants; format: in vivo; conditions: 144 h, 6 dat, read-out: % efficacy
Protocol: Myzus persicae—Spray Test (MYZUPE S) • Solvent: 14 parts by weight of dimethylformamide • Emulsifier: alkylaryl polyglycol ether
as §2, with “water. If the addition of ammonium salts or/and penetrants is required, these are each added in a concentration of 1000 ppm to the formulation solution.” for “water.”
Bell pepper plants (Capsicum annuum) severely infested with the green peach aphid (Myzus persicae) are treated by spraying with the active compound formulation in the desired concentration.
After the desired time, the kill in % is determined. 100% means that all the animals have been killed; 0% means that no animals have been killed.

Spodoptera frugiperda = Spodoptera frugiperda spray test; format: in vivo; conditions: application rate 100 g/ha, after 7 days
Protocol: Spodoptera frugiperda—Spray Test • Solvent: 78.0 parts by weight of acetone • 1.5 parts by weight of dimethylformamide • Emulsifier: alkylaryl polyglycol ether
as §2
Leaf discs of maize (Zea mays) are sprayed with an active compound formulation of the desired concentration and, after drying, populated with caterpillars of the fall armyworm (Spodoptera frugiperda).
After 7 days, the efficacy in % is determined. 100% means that all the caterpillars have been killed; 0% means that no caterpillar has been killed.

[6] = application rate 4 ppm, after 5 days
[7] = application rate 100 g/ha, after 5 days
[8] = application rate 100 g/ha, after 7 days

SMILES: CCS(=O)(=O)c1c(-c2nc3ccc(C(F)(F)F)cn3n2)nc2cc(NC(=O)OC)ccn12 [Example I-08]
- pest or weed control at 4 ppm (Myzus persicae [1]): 100%
- pest or weed control at 100 g/ha (Phaedon cochleariae): 83%
- pest or weed control at 100 g/ha (Myzus persicae [2]): 100%
- efficacy (kill) (Lucilia cuprina): 100%
- efficacy (kill) (Ctenocephalides felis): 90%

- chromatographic logP [3]: 3.01
SMILES: N=C(Nc1cnc(C(F)(F)F)cn1)c1nc2ccccc2cc1Br [3-Bromo-N-[5-(trifluoromethyl)pyrazin-2-yl]quinoline-2-carboxamidine]

SMILES: CCS(=O)(=O)c1c(-c2nc3cc(C(F)(F)F)ccc3n2C)nc2cc(C(F)(F)F)ccn12 [Example I-34, reference compound]
- Emax at 100 g/ha (Nilaparvata lugens): 0%
- Emax at 500 g/ha (Nilaparvata lugens; 500 g/ha): 0%
- Emax at 20 ppm (Myzus persicae [4]): 0%
- aphid kill at 20 ppm (Aphis gossypii): 0%
- Emax at 20 ppm (Myzus persicae [5]): 0%

SMILES: CCS(=O)(=O)c1c(-c2nc3ccc(C(F)(F)F)cn3n2)nc2cc(C3CC3)ccn12 [Example I-10]
- pest or weed control at 4 ppm (Myzus persicae [1]; [6]): 100%
- pest or weed control at 20 g/ha (Phaedon cochleariae; after 7 days): 83%
- efficacy (Spodoptera frugiperda): 83%
- pest or weed control at 100 g/ha (Myzus persicae [2]; [7]): 90%
- Emax at 100 g/ha (Nilaparvata lugens): 100%
- Emax at 20 ppm (Myzus persicae [4]): 90%
- aphid kill at 20 ppm (Aphis gossypii): 99%
- Emax at 20 ppm (Myzus persicae [5]): 100%

- chromatographic logP [3]: 1.57
SMILES: CCS(=O)(=O)c1c(C(N)=O)nc2cc(C(F)(F)F)ccn12 [3-(Ethylsulfonyl)-7-(trifluoromethyl)imidazo[1,2-a]pyridine-2-carboxamide]

SMILES: CCS(=O)(=O)c1c(-c2nc3ccc(C(F)(F)F)cn3n2)ncc2ccccc12 [Example I-15]
- pest or weed control at 4 ppm (Myzus persicae [1]; [6]): 100%
- pest or weed control at 100 g/ha (Myzus persicae [2]; [7]): 90%

- chromatographic logP [3]: 2.56
SMILES: CCSc1c(C(=O)OC)nc2cc(C(F)(F)F)ccn12 [Methyl 3-(ethylsulfanyl)-7-(trifluoromethyl)imidazo[1,2-a]pyridine-2-carboxylate]

SMILES: CCS(=O)(=O)c1c(-c2nc3ccc(C(F)(F)F)cn3n2)nc2cc(OCC(F)(F)F)ccn12 [Example I-06]
- pest or weed control at 4 ppm (Myzus persicae [1]; [6]): 100%
- pest or weed control at 20 g/ha (Phaedon cochleariae; after 7 days): 100%
- pest or weed control at 100 g/ha (Phaedon cochleariae; [8]): 100%
- Emax at 20 ppm (Aphis gossypii): 95%
- Emax at 20 ppm (Myzus persicae [5]): 99%

- chromatographic logP [3]: 2.98
SMILES: FC(F)(F)c1cn2nc(-c3nc4ccccc4cc3Br)nc2cn1 [3-Bromo-2-[6-(trifluoromethyl)-[1,2,4]triazolo[1,5-a]pyrazin-2-yl]quinoline]

- chromatographic logP [3]: 2.28
SMILES: CCS(=O)(=O)c1c(C#N)nc2cc(C(F)(F)F)ccn12 [3-(Ethylsulfonyl)-7-(trifluoromethypimidazo[1,2-a]pyridine-2-carbonitrile]

SMILES: CCS(=O)(=O)c1c(-c2nc3ccc(C(F)(F)F)cn3n2)nc2cc(C(=O)OC)ccn12 [Example I-11]
- pest or weed control at 4 ppm (Myzus persicae [1]; [6]): 100%

SMILES: CCS(=O)(=O)c1c(-c2nc3ccc(C(F)(F)F)cn3n2)nc2n1CCCC2 [Example I-04]
- pest or weed control at 4 ppm (Myzus persicae [1]; [6]): 100%

SMILES: CCS(=O)(=O)c1c(-c2nc3ccc(C(F)(F)F)cn3n2)nc2cc(S(=O)(=O)C3CC3)ccn12 [Example I-13]
- pest or weed control at 4 ppm (Myzus persicae [1]; [6]): 100%
- pest or weed control at 20 g/ha (Phaedon cochleariae; after 7 days): 83%
- pest or weed control at 100 g/ha (Phaedon cochleariae; [8]): 100%
- pest or weed control at 100 g/ha (Myzus persicae [2]; [7]): 100%
- Emax at 100 g/ha (Nilaparvata lugens): 100%
- Emax at 20 ppm (Myzus persicae [4]): 100%
- Emax at 20 ppm (Aphis gossypii): 99%
- Emax at 20 ppm (Myzus persicae [5]): 95%

SMILES: CCS(=O)(=O)c1c(-c2nc3cnc(C(F)(F)F)cn3n2)ncc2ccccc12 [Example I-16]
- pest or weed control at 4 ppm (Myzus persicae [1]; [6]): 100%
- pest or weed control at 100 g/ha (Myzus persicae [2]; [7]): 100%

SMILES: CCS(=O)(=O)c1c(-c2nc3ccc(C(F)(F)F)cn3n2)nc2cc(NC(C)=O)ccn12 [Example I-07]
- pest or weed control at 4 ppm (Myzus persicae [1]; [6]): 100%
- efficacy (kill) (Ctenocephalides felis): 100%

SMILES: CCS(=O)(=O)c1cc2ccccc2nc1-c1nc2ccc(C(F)(F)F)cn2n1 [Example I-03]
- pest or weed control at 4 ppm (Myzus persicae [1]; [6]): 100%
- pest or weed control at 100 g/ha (Phaedon cochleariae; [8]): 100%
- pest or weed control at 100 g/ha (Myzus persicae [2]; [7]): 90%

- chromatographic logP [3]: 2.15
SMILES: CCS(=O)(=O)c1c(C(=O)OC)nc2cc(C(F)(F)F)ccn12 [Methyl 3-(ethylsulfonyl)-7-(trifluoromethyl)imidazo[1,2-a]pyridine-2-carboxylate]

- chromatographic logP [3]: 2.44
SMILES: CCS(=O)(=O)c1cc2ccccc2nc1-c1nc2cnc(C(F)(F)F)cn2n1 [Example I-02, 3-Ethylsulfonyl-2-[6-(trifluoromethyl)-[1,2,4]triazolo[1,5-a]pyrazin-2-yl]quinoline]
- pest or weed control at 4 ppm (Myzus persicae [1]; [6]): 90%
- pest or weed control at 100 g/ha (Phaedon cochleariae; [8]): 100%
- pest or weed control at 100 g/ha (Myzus persicae [2]; [7]): 100%
